# Test results from patent US12162888B2, “Carboxamides as ubiquitin-specific protease inhibitors” (Valo Early Discovery, Inc., priority 2018, dated 2024).
# Target: T1, USP28 (His-tagged USP28-FL-mammalian) (Homo sapiens, UniProt Q96RU2)
# T1 construct: Expression of USP28 (1-1077)-TEV-6*His (pTT5 vector) was carried out in Expi293f cells; made in house; host or cells: Expi293F cells (pTT5 vector)
# T1 sequence (Q96RU2 1-1077): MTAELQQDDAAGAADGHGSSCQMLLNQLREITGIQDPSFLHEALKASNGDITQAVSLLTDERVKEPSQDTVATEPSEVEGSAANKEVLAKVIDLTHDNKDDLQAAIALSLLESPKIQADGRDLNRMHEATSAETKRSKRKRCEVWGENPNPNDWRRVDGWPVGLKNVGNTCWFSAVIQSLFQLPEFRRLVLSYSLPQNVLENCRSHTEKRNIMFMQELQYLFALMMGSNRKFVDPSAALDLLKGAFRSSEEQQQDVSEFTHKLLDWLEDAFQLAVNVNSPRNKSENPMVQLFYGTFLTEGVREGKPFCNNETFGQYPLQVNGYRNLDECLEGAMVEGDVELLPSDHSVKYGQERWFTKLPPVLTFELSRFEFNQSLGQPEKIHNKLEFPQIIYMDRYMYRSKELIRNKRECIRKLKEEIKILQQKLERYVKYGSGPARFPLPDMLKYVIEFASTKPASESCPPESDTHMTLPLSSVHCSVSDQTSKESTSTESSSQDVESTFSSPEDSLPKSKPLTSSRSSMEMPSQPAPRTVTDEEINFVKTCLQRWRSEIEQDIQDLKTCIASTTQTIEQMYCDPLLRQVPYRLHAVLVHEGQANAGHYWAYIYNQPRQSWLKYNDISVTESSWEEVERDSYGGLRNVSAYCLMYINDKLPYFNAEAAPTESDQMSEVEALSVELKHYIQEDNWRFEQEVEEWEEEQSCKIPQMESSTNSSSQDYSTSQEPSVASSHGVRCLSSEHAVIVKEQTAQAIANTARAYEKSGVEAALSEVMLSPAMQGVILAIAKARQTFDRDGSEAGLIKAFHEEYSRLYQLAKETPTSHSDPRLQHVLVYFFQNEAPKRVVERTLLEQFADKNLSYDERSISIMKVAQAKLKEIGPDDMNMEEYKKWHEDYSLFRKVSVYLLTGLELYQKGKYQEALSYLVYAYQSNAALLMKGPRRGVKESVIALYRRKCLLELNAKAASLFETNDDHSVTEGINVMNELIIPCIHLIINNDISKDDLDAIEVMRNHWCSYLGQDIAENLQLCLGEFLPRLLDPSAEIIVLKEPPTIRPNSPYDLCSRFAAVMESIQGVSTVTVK
# Assay: Ubiquitin-Rhodamine 110 Assay for USP28 Activity, Example A-1(a)
# Format: biochemical
# Details: Ubiquitin-Rhodamine 110 biochemical assay, read-out: USP28 A-1(a) IC50 range
# Experimental: Example A-1(a): Biochemical Assay: Ubiquitin-Rhodamine 110 Assay for USP28 Activity
# The assay was performed in a final volume of 9 μL in assay buffer containing 20 mM Tris-HCl (pH 8.0, (1M Tris-HCl, pH 8.0 solution; Corning 46-031-CM)), 3 mM BME (2-Mercaptoethanol; Sigma 63689-25ML-F), 0.03% BGG (0.22 μM filtered, Sigma, G7516-25G), and 0.01% Triton X-100 (Sigma, T9284-10L). Nanoliter quantities of 10-point, 3-fold serial dilution in DMSO was pre-dispensed into 1536 assay plates (Corning, #3724BC) for a final test concentration of 25 μM to 1.3 nM, top to lowest dose, respectively. Enzyme USP28, construct His-tagged USP28-FL-mammalian, (protein expression and purification procedure described below). Concentration and incubation times were optimized for the maximal signal-to-background while maintaining initial velocity conditions at a fixed substrate concentration. The final concentration of the enzyme in the assay was […]. Final substrate (Ub-Rh110; Ubiquitin-Rhodamine 110, UbiQ-126) concentration was 25 nM with [Ub-Rh110]<<Km. 3 μL of 2× enzyme was added to assay plates (pre-stamped with compound) preincubated with […] for 30 minutes and then 3 μL of 2× Ub-Rh110 was added to assay plates. Plates were incubated for 45 minutes at room temperature before addition of 3 μL of stop solution (final concentration of 10 mM citric acid (Sigma, 251275-500G)). Fluorescence was read on the Envision (Excitation at 485 nm and Emission at 535 nm; Perkin Elmer) or on the PheraSTAR (Excitation at 485 nm and Emission at 535 nm; BMG Labtech).
# Procedure for the Protein expression and purification for construct His-tagged USP28-FL-mammalian
# Expression of USP28 (1-1077)-TEV-6*His (pTT5 vector) was carried out in Expi293f cells (sequence derived from uniprot ID: Q96RU2-1). Cells were re-suspended in lysis buffer B 50 mM Bicine, pH 8.0, 20 mM NaCl, 5% glycerol, 0.1% CHAPS, 5 mM β-ME, 1 mM PMSF, 1 ug/ml Leupeptin, 1 ug/ml Pepstatin) and lysed by sonication. Insoluble material was removed by centrifugation and the supernatant was loaded onto a Ni-NTA column (GE Healthcare) equilibrated with Ni Buffer A (50 mM Bicine, pH 8.0, 20 mM NaCl, 5% glycerol, 0.1% CHAPS, 5 mM R-ME.) and washed with Ni Buffer A+20 mM imidazole until A280 reached baseline. The protein was eluted with Ni Buffer B (50 mM Bicine, pH 8.0, 20 mM NaCl, 5% glycerol, 0.1% CHAPS, 5 mM β-ME, 300 mM imidazole.). The protein was further purified using a Superdex™ 200 10/300 GL column (GE Healthcare) equilibrated with 50 mM Bicine, pH 8.0, 20 mM NaCl, 5% glycerol, 0.1% CHAPS, 5 mM β-ME. The protein was concentrated to 2.5 mg ml-1, flash-frozen in liquid N2 and stored at −80° C.
# For assay formats Example A-1(a), A-1(b), and A-2, data were reported as percent inhibition compared with control wells based on the following equation: % inh=1−((FLU−AveLow)/(AveHigh−AveLow)) where FLU=measured Fluorescence, AveLow=average Fluorescence of no enzyme control (n=16), and AveHighh=average Fluorescence of DMSO control (n=16). IC50 values were determined by curve fitting of the standard 4 parameter logistic fitting algorithm included in the Activity Base software package: IDBS XE Designer Model 205. Data is fitted using the Levenburg Marquardt algorithm.
row,SMILES,IC50 [nM]
1,"CO[C@H]1CCCN(c2ccc3c(n2)CC[C@H](NC(=O)c2sc4nc(C)ccc4c2N)C3)C[C@@H]1N [Example 494, 3-amino-N-[(6S)-2-[(3S,4S)-3-amino-4-methoxyazepan-1-yl]-5,6,7,8-tetrahydroquinolin-6-yl]-6-methylthieno[2,3-b]pyridine-2-carboxamide]",1 to 50
2,"CO[C@H]1CN(c2ccc3c(n2)CC[C@H](NC(=O)c2sc4cnccc4c2N)C3)C[C@@H]1N [Example 504, 3-amino-N-[(6S)-2-[(3S,4S)-3-amino-4-methoxypyrrolidin-1-yl]-5,6,7,8-tetrahydroquinolin-6-yl]thieno[2,3-c]pyridine-2-carboxamide]",> 2000
3,"CN[C@H]1CN(c2ccc3c(n2)CC[C@H](NC(=O)c2sc4nc(C)cnc4c2N)C3)C[C@H]1OC [Example 496, 7-amino-N-[(6S)-2-[(3R,4S)-3-methoxy-4-(methylamino)pyrrolidin-1-yl]-5,6,7,8-tetrahydroquinolin-6-yl]-3-methylthieno[2,3-b]pyrazine-6-carboxamide]",200 to 2000
4,"CN[C@@H]1CN(c2ccc3c(n2)CC[C@H](NC(=O)c2sc4nc(C)ccc4c2N)C3)C[C@@]12CCCCO2 [Example 503, 3-amino-6-methyl-N-[(6S)-2-[(4R,5S)-4-(methylamino)-6-oxa-2-azaspiro[4.5]decan-2-yl]-5,6,7,8-tetrahydroquinolin-6-yl]thieno[2,3-b]pyridine-2-carboxamide]",50 to 200
5,"COCC(F)(F)[C@H]1CN(c2ccc3c(n2)CC[C@H](NC(=O)c2sc4nc(C)ccc4c2N)C3)C[C@@H]1N [Example 480, 3-amino-N-[(6S)-2-[(3R,4S)-3-amino-4-(1,1-difluoro-2-methoxyethyl)pyrrolidin-1-yl]-5,6,7,8-tetrahydroquinolin-6-yl]-6-methylthieno[2,3-b]pyridine-2-carboxamide]",50 to 200
6,"CO[C@H](C)CO[C@H]1CN(c2ccc3c(n2)CC[C@H](NC(=O)c2sc4nc(C)ccc4c2N)C3)C[C@@H]1N [Example 482, 3-amino-N-[(6S)-2-[(3S,4S)-3-amino-4-[(2R)-2-methoxypropoxy]pyrrolidin-1-yl]-5,6,7,8-tetrahydroquinolin-6-yl]-6-methylthieno[2,3-b]pyridine-2-carboxamide]",50 to 200
7,"Cc1cnc2c(N)c(C(=O)N[C@H]3CCc4nc(N5C[C@@H](N)C6(C5)OCCO6)ccc4C3)sc2n1 [Example 499, 7-amino-N-[(6S)-2-[(9R)-9-amino-1,4-dioxa-7-azaspiro[4.4]nonan-7-yl]-5,6,7,8-tetrahydroquinolin-6-yl]-3-methylthieno[2,3-b]pyrazine-6-carboxamide]",200 to 2000
8,"Cc1ccc2c(N)c(C(=O)N[C@H]3CCc4nc(N5C[C@H](N)[C@@]6(CCCCO6)C5)ccc4C3)sc2n1 [Example 508, 3-amino-N-[(6S)-2-[(4S,5R)-4-amino-6-oxa-2-azaspiro[4.5]decan-2-yl]-5,6,7,8-tetrahydroquinolin-6-yl]-6-methylthieno[2,3-b]pyridine-2-carboxamide]",50 to 200

# Same assay, conditions: biochemical IC50 range, Ubiquitin-Rhodamine 110 assay, read-out: USP28 A-1(a)
row,SMILES,IC50 [nM]
1,"COC1CCCN(c2cc(F)c3c(c2)OCC(NC(=O)c2sc4nc(C)ccc4c2N)C3)CC1N [Example 690, 3-amino-N-[(3R)-7-[(3S,4S)-3-amino-4-methoxyazcpan-1-yl]-5-fluoro-3,4-dihydro-2H-1-benzopyran-3-yl]-6-methylthieno[2,3-b]pyridine-2-carboxamide]",1 to 50
2,"CCOc1ncc(C(=O)N[C@H]2COc3cc(N4CCNCC4)ccc3C2)c2c1CCCN2 [Example 678, 5-ethoxy-N-[(3R)-7-(piperazin-1-yl)-3,4-dihydro-2H-1-benzopyran-3-yl]-1,2,3,4-tetrahydro-1,6-naphthyridine-8-carboxamide]",1 to 50
3,"Cc1ccc2c(N)c(C(=O)N[C@H]3COc4cc(N5C[C@H](N)C6(C5)OCCO6)ccc4C3)sc2n1 [Example 681, 3-amino-N-[(3R)-7-[(9S)-9-amino-1,4-dioxa-7-azaspiro[4.4]nonan-7-yl]-3,4-dihydro-2H-1-benzopyran-3-yl]-6-methylthieno[2,3-b]pyridine-2-carboxamide]",1 to 50
4,"CO[C@H]1CCCN(c2cc(F)c3c(c2)OC[C@H](NC(=O)c2sc4nc(C)ccc4c2N)C3)C[C@H]1N [Example 691, 3-amino-N-[(3R)-7-[(3R,4S)-3-amino-4-methoxyazepan-1-yl]-5-fluoro-3,4-dihydro-2H-1-benzopyran-3-yl]-6-methylthieno[2,3-b]pyridine-2-carboxamide]",50 to 200
5,"Cc1ccc2c(N)c(C(=O)N[C@H]3COc4cc(N5C[C@@H](N)[C@]6(C5)OCC[C@H]6C)ccc4C3)sc2n1 (single isomer, unassigned) [Example 612-4]",1 to 50
6,"Cc1ccc2c(N)c(C(=O)NC3COc4cc(N5CC6CCNCC65)cc(F)c4C3)sc2n1 [Example 664, 3-amino-N-[(3R)-7-[(1S,6R)-3,8-diazabicyclo[4.2.0]octan-8-yl]-5-fluoro-3,4-dihydro-2H-1-benzopyran-3-yl]-6-mcthylthicno[2,3-b]pyridinc-2-carboxamide]",1 to 50
7,"CCOc1ncc(C(=O)N[C@H]2COc3cc(N4CCNCC4)ccc3C2)c2[nH]ccc12 [Example 676, 4-ethoxy-N-[(3R)-7-(piperazin-1-yl)-3,4-dihydro-2H-1-benzopyran-3-yl]-1Hpyrrolo[3,2-c]pyridine-7-carboxamide]",200 to 2000
8,"CCNC1CN(c2ccc3c(c2)OCC(NC(=O)c2sc4nc(C)ccc4c2N)C3)CC1COC [Example 668, 3-amino-N-[(3R)-7-[(3R,4S)-3-(ethylamino)-4-(mcthoxymcthyl)pyrrolidin-1-yl]-3,4-dihydro-2H-1-benzopyran-3-yl]-6-methylthicno[2,3-b]pyridinc-2-carboxamide]",1 to 50
